Values of other authors in PMC12181400, “Leveraging viral genome sequences and machine learning models for identification of potentially selective antiviral agents” (Communications Chemistry, 2025).
Where a name gives a salt, the structure may show the parent alone. Read-outs that look alike come from different tables or passages of the source. Peptide text beside a SMILES is read from it.

What was measured:
Conditions in all cases: cited from earlier work
[1] = tested on: cell viability (tox21-ar-mda-kb2-luc-antagonist-p2)
[2] = tested on: cell viability (tox21-ar-mda-kb2-luc-agonist-p3)
[3] = tested on: cell viability (tox21-car-agonist-p1)
[4] = tested on: cell viability (tox21-are-bla-p1)
[5] = tested on: cell viability (tox21-car-antagonist-p1)
[6] = tested on: cell viability (tox21-ap1-agonist-p1)
[7] = curve rank −9 to 9, 0 = inactive, ref NCATS Tox21 public data browser

Structure (SMILES)	tox21-ar-mda-kb2-luc-antagonist-p2-viability (curve rank) [1]	tox21-ar-mda-kb2-luc-agonist-p3-viability (curve rank) [2]	tox21-car-agonist-p1-viability (curve rank) [3]	tox21-are-bla-p1-viability (curve rank) [4]	tox21-car-antagonist-p1-viability (curve rank) [5]	tox21-ap1-agonist-p1-viability (curve rank) [6]	tox21-ar-mda-kb2-luc-antagonist-p2-viability (curve rank) [1, 7]	tox21-ar-mda-kb2-luc-agonist-p3-viability (curve rank) [2, 7]	tox21-car-agonist-p1-viability (curve rank) [3, 7]	tox21-are-bla-p1-viability (curve rank) [4, 7]	tox21-car-antagonist-p1-viability (curve rank) [5, 7]	tox21-ap1-agonist-p1-viability (curve rank) [6, 7]
CC(=O)Nc1nnc(S(N)(=O)=O)s1 [Acetazolamide]	0	0	0	0	0	0						
CC(=O)N[C@@H](CC(C)C)C(=O)O [Acetyl-L-leucine]	0	0	0	0	0	0						
CC(=O)NCCCCCC(=O)O [Acexamic acid]							0	0	0	0	0	0
CCN(CC)CCOC(=O)C(c1ccccc1)c1ccccc1 [Adiphenine hydrochloride]	0	0	0	0	0	0						
C=CCNC(N)=S [Allylthiourea]							0	0	0	0	0	0
Nc1ccccc1C(=O)O [Anthranilic acid]							0	0	0	0	0	0
OC[C@H]1O[C@@H](Oc2ccc(O)cc2)[C@H](O)[C@@H](O)[C@@H]1O [Arbutin]							0	0	0	0	0	0
COC(=O)[C@H](Cc1ccccc1)NC(=O)[C@@H](N)CC(=O)O [Aspartame] (H-Asp-Phe-OMe)							0	0	0	0	0	0
OC(c1ccccc1)(c1ccccc1)C1CCNCC1 [Azacyclonol]							0	0	0	0	0	0
NS(=O)(=O)c1cc2c(cc1C(F)(F)F)NC(Cc1ccccc1)NS2(=O)=O (stereo not drawn) [Bendroflumethiazide]	0	0	0	0	0	0						
C/C(=C(\CCOP(=O)(O)O)SC(=O)c1ccccc1)N(C=O)Cc1cnc(C)nc1N [Benfotiamine]	0	0	0	0	0	0						
CC1(C)S[C@@H]2[C@H](NC(=O)Cc3ccccc3)C(=O)N2[C@H]1C(=O)O.CC1(C)S[C@@H]2[C@H](NC(=O)Cc3ccccc3)C(=O)N2[C@H]1C(=O)O.c1ccc(CNCCNCc2ccccc2)cc1 [Benzathine penicillin G]							0	0	0	0	0	0
NS(=O)(=O)c1cc2c(cc1Cl)N=C(CSCc1ccccc1)NS2(=O)=O [Benzthiazide]	0	0	0	0	0	0						
CC(C)NCC(O)COc1ccc(COCCOC(C)C)cc1 (stereo not drawn) [Bisoprolol fumarate]	0	0	0	0	0	0						
Brc1c(NC2=NCCN2)ccc2nccnc12 [Brimonidine]	0	0	0	0	0	0						
CCN[C@H]1CN(CCCOC)S(=O)(=O)c2sc(S(N)(=O)=O)cc21 [Brinzolamide]	0	0	0	0	0	0						
CCN(CC)CCNC(=O)c1cc(Br)c(N)cc1OC [Bromopride]	0	0	0	0	0	0						
COc1cc(C(=O)NCCCCCC(=O)O)cc(OC)c1OC [Capobenic acid]							0	0	0	0	0	0
NC(=O)N1c2ccccc2C=Cc2ccccc21 [Carbamazepine]	0	0	0	0	0	0						
CC(C)(C)NCC(O)COc1cccc2c1CCC(=O)N2 (stereo not drawn) [Carteolol hydrochloride]	0	0	0	0	0	0						
CO[C@@]1(NC(=O)CSCC#N)C(=O)N2C(C(=O)O)=C(CSc3nnnn3C)CS[C@@H]21 [Cefmetazole sodium]	0	0	0	0	0	-0.67						
